In patent US7879853B2, “4,6-disubstituted pyrimidines and their use as protein kinase inhibitors” (Bayer Schering Pharma AG, priority 2004, dated 2011) one finds IC50 and melting point data, which are given here for 24 compounds.

A word on the melting point: it is the temperature, or range, at which the solid turns liquid.

One series has as its target T1, GST-ΔPH-Akt1 (Homo sapiens, UniProt P31749).
T1 construct: named GST-deltaPH-Akt1; 107480aa; cloned in the pAcG1 vector; made in house; host or cells: SF9 insect cells (pAcG1 vector), co-expressed with PDK1
In words: Biochemical ΔPH Akt1 assay (flashplate, 33P-ATP, histone 2B). The note with it: GST-ΔPH-Akt1, histone 2B substrate, 100 nM ATP, 80 minutes at 30° C.; read-out: Akt inhibition: IC50 (inhibition of deltaPHAkt1). The source says:
For the biochemical assay ΔPHAkt1 was used devoid of its PH domain as a GST fusion protein (named GST-deltaPH-Akt1; 107480aa; cloned in the pAcG1 vector (BD Biosciences Pharmingen)), co-expressed with PDK1 in SF9 insect cells. The protein was purified using glutathion-affinity chromatography by standard protocols.
In order to study the inhibition of Akt according to the invention, a flashplate-based assay has been developed.
The Akt1 assay is a biochemical assay using Akt1 devoid of its PH domain and co-expressed with PDK1 in insect cells. The GST-ΔPH-Akt1 assay is run in 96 well plates by incubating 100 ng/well GST-ΔPH-Akt1, 100 ng/well histone 2B (Roche, #223514) as substrate, 10 μl of compound of invention (test compounds were dissolved as 10 mM solutions in dimethylsulfoxide (DMSO) and subsequently diluted) and 100 nM ATP (including ^33P-ATP) in 100 μl of reaction buffer ([…], pH7.5; 3 mM MgCl2; 3 mM MnCl2; 3 μM Na-Orthovanadat; 1 mM DTT; 1 μg/ml PEG8000) for 80 minutes at 30° C. The reactions are terminated by adding 100 μl stopping buffer (2% H3PO4 for 5 minutes) and are washed 3 times by using washing buffer (0.9% NaCl). Relying on the incorporation of ^33P into the protein substrate histone 2B, the detection is based on the adhesion of the phosphorylated protein to the surface of scintillator-coated flash plates (NEN, USA; #SMP-200). This phosphorylation is measured by counting the plate for 60 sec. using a plate reader (Wallac Microbeta; Perkin Elmer, USA). The analysis of the data is performed using a biostatistical program (GraphPad Prism, USA).

T1 sequence (P31749 107-480 limits assumed, stated change not applied): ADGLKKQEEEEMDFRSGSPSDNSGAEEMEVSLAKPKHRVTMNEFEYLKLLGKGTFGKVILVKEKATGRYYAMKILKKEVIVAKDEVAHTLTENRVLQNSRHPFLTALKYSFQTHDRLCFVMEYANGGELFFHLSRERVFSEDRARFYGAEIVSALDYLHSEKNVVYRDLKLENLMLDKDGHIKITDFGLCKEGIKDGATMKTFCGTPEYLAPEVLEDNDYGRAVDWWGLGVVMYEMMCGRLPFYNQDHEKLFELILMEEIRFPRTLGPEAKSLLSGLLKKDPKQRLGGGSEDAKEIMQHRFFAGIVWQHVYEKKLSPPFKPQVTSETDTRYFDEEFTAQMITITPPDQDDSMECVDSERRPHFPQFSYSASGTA

For the compound `Nc1ccccc1C(=O)Nc1cccc(Nc2cc(-c3cccc4c3oc3ccccc34)ncn2)c1.O=C(O)C(F)(F)F` [Compound 59, 2-Amino-N-[3-(6-dibenzofuran-4-yl-pyrimidin-4-ylamino)-phenyl]-benzamide trifluoroacetate], the melting point lay within 140 to 150 °C. Besides, the IC50 on GST-ΔPH-Akt1 is not above 5 µM.

Take `N#Cc1ccc(C(=O)Nc2ccc(Nc3cc(-c4cccc5c4oc4ccccc45)ncn3)cc2)cc1` [Compound 46, 4-Cyano-N-[4-(6-dibenzofuran 4-yl-pyrimidin-4-ylamino)-phenyl]-benzamide]: the IC50 at GST-ΔPH-Akt1 is not above 5 µM.

Compound `O=C(Nc1ccc(Nc2cc(-c3cccc4c3oc3ccccc34)ncn2)cc1)c1ccc(Cl)c(Cl)c1` [Compound 9, 3,4-Dichloro-N-[4-(6-dibenzofuran-4-yl-pyrimidin-4-ylamino)-phenyl]-benzamide] had a melting point of 317 to 321 °C. The IC50 on GST-ΔPH-Akt1 is not above 5 µM.

Regarding `NCc1ccc(C(=O)Nc2ccc(Nc3cc(-c4cccc5c4oc4ccccc45)ncn3)cc2)c(F)c1` [Compound 72, 4-Aminomethyl-N-[4-(6-dibenzofuran-4-yl-pyrimidin-4-ylamino)-phenyl]-2-fluorobenzamide], the melting point is > 200 °C (dec.). The IC50 on GST-ΔPH-Akt1 is not above 5 µM.

For `NCc1ccc(C(=O)Nc2ccc(Nc3cc(-c4cccc5c4oc4ccccc45)ncn3)cc2)nc1.O=C(O)C(F)(F)F` [Compound 77, 5-Aminomethyl-pyridine-2-carboxylic acid [4-(6-dibenzofuran-4-yl-pyrimidin-4-ylamino)-phenyl]-amide trifluoroacetate], the melting point was 164 to 170 °C. In addition, on GST-ΔPH-Akt1, the IC50 was not above 5 µM.

Compound `CN(C)c1ccc(C(=O)Nc2cccc(Nc3cc(-c4cccc5c4oc4ccccc45)ncn3)c2)cc1` [Compound 42, N-[3-(6-Dibenzofuran-4-yl-pyrimidin-4-ylamino)-phenyl]-4-dimethylamino-benzamide] returned a melting point of more than 250 °C. Moreover, on GST-ΔPH-Akt1, the IC50 is not above 5 µM.

In turn, `NCc1cccc(C(=O)Nc2cccc(Nc3cc(-c4cccc5c4oc4ccccc45)ncn3)c2)c1.O=C(O)C(F)(F)F` [Compound 61, 3-Aminomethyl-N-[3-(6-dibenzofuran-4-yl-pyrimidin-4-ylamino)-phenyl]-benzamide trifluoroacetate] showed a melting point of 150 to 156 °C. Further, on GST-ΔPH-Akt1, the IC50 is not above 5 µM.

For the compound `O=C(Nc1ccc(Nc2cc(-c3cccc4c3oc3ccccc34)ncn2)cc1)c1cccc(N2CCCC2)c1` [Compound 6, N-[4-(6-Dibenzofuran-4-yl-pyrimidin-4-ylamino)-phenyl]-3-pyrrolidin-1-ylbenzamide], the melting point is 250 to 255 °C. Moreover, the IC50 at GST-ΔPH-Akt1 was not above 5 µM.

`NCc1cncc(C(=O)Nc2ccc(Nc3cc(-c4cccc5c4oc4ccccc45)ncn3)cc2)c1` [Compound 74, 5-Aminomethyl-N-[4-(6-dibenzofuran-4-yl-pyrimidin-4-ylamino)-phenyl]-nicotinamide]: the melting point was 184 °C (dec.). Also, the IC50 on GST-ΔPH-Akt1 is not above 5 µM.

`Nc1cccc(C(=O)Nc2ccc(Nc3cc(-c4cccc5c4oc4ccccc45)ncn3)cc2)c1.O=C(O)C(F)(F)F` [Compound 51, 3-Amino-N-[4-(6-Dibenzofuran-4-yl-pyrimidin-4-ylamino)-phenyl]-benzamide trifluoroacetate] gave a melting point of 140 to 147 °C. Also, on GST-ΔPH-Akt1, the IC50 was not above 5 µM.

`CN(C)Cc1ccc(C(=O)Nc2ccc(Nc3cc(-c4cccc5c4oc4ccccc45)ncn3)cc2)cc1` [Compound 12, N-[4-(6-Dibenzofuran-4-yl-pyrimidin-4-ylamino)-phenyl]-4-dimethylaminomethyl-benzamide] had a melting point of 299 °C. The IC50 on GST-ΔPH-Akt1 is not above 5 µM.

`Cc1ccc(NC(=O)c2ccc(CN)cc2)cc1Nc1cc(-c2cccc3c2oc2ccccc23)ncn1.O=C(O)C(F)(F)F` [Compound 67, 4-Aminomethyl-N-[3-(6-dibenzofuran-4-yl-pyrimidin-4-ylamino)-4-methyl-phenyl]-benzamide trifluoroacetate] gave a melting point of 180 to 185 °C. In addition, the IC50 on GST-ΔPH-Akt1 is not above 5 µM.

Regarding `COCCNc1ccc(C(=O)Nc2ccc(Nc3cc(-c4cccc5c4oc4ccccc45)ncn3)cc2)cc1.O=C(O)C(F)(F)F` [Compound 71, N-[4-(6-Dibenzofuran-4-yl-pyrimidin-4-ylamino)-phenyl]-4-(2-methoxyethylamino)benzamide trifluoroacetate], the melting point was more than 250 °C. On GST-ΔPH-Akt1, the IC50 was not above 5 µM.

On to `Nc1ccc(C(=O)Nc2cccc(Nc3cc(-c4cccc5c4oc4ccccc45)ncn3)c2)cc1.O=C(O)C(F)(F)F` [Compound 62, 4-Amino-N-[3-(6-dibenzofuran-4-yl-pyrimidin-4-ylamino)-phenyl]-benzamide trifluoroacetate], for which the melting point fell in the range of 185 to 188 °C. On GST-ΔPH-Akt1, the IC50 was not above 5 µM.

As for `CN1CCN(Cc2ccc(C(=O)Nc3ccc(Nc4cc(-c5cccc6c5oc5ccccc56)ncn4)cc3)cc2)CC1` [Compound 3, N-[4-(6-Dibenzofuran-4-yl-pyrimidin-4-ylamino)-phenyl]-4-(4-methyl-piperazin-1-ylmethyl)-benzamide], the melting point fell in the range of 270 to 274 °C.

`CC(C)(C)OC(=O)NCCc1ccc(C(=O)Nc2cccc(Nc3cc(-c4cccc5c4oc4ccccc45)ncn3)c2)cc1` [Compound 26, tert-Butyl N-(2-{4-[3-(6-dibenzofuran-4-yl-pyrimidin-4-ylamino)-phenylcarbamoyl]-phenyl}-ethyl)-carbamate]: the melting point is 239 to 241 °C.

For the compound `CC(C)(C)OC(=O)NCc1cccc(C(=O)Nc2cccc(Nc3cc(-c4cccc5c4oc4ccccc45)ncn3)c2)c1` [Compound 29, tert-Butyl N-{3-[3-(6-Dibenzofuran-4-yl-pyrimidin-4-ylamino)-phenylcarbamoyl]-benzyl}-carbamate], the melting point lay within 216 to 219 °C.

Turning to `COCCC(CCOC)c1cccc(C(=O)Nc2ccc(Nc3cc(-c4cccc5c4oc4ccccc45)ncn3)cc2)c1` [Compound 16, N-[4-(6-Dibenzofuran-4-yl-pyrimidin-4-ylamino)-phenyl]-3-[3-methoxy-1-(2-methoxyethyl)-propyl]-benzamide], the melting point was 186 to 188 °C.

In turn, `O=C(Nc1ccc(Nc2cc(-c3cccc4c3oc3ccccc34)ncn2)cc1)c1ccncc1` [Compound 11, N-[4-(6-Dibenzofuran-4-yl-pyrimidin-4-ylamino)-phenyl]-isonicotinamide] yielded a melting point of 283 to 295 °C. Moreover, at GST-ΔPH-Akt1, the IC50 is not above 5 µM.

For the compound `CC(C)(C)c1ccc(C(=O)Nc2ccc(Nc3cc(-c4cccc5c4oc4ccccc45)ncn3)cc2)cc1` [Compound 8, 4-tert-Butyl-N-[4-(6-dibenzofuran-4-yl-pyrimidin-4-ylamino)-phenyl]-benzamide], the melting point was 261 to 263 °C.

With `NCc1ccc(CC(=O)Nc2ccc(Nc3cc(-c4cccc5c4oc4ccccc45)ncn3)cc2)cc1.O=C(O)C(F)(F)F` [Compound 66, 2-(4-Aminomethyl-phenyl)-N-[4-(6-dibenzofuran-4-yl-pyrimidin-4-ylamino)-phenyl]-acetamide trifluoroacetate], the melting point fell in the range of 251 to 255 °C.

Turning to `Nc1ccccc1C(=O)Nc1ccc(Nc2cc(-c3cccc4c3oc3ccccc34)ncn2)cc1.O=C(O)C(F)(F)F` [Compound 50, 2-Amino-N-[4-(6-dibenzofuran-4-yl-pyrimidin-4-ylamino)-phenyl]-benzamide trifluoroacetate], the melting point fell in the range of 136 to 138 °C.

In turn, `CC(C)(C)OC(=O)NCc1ccc(C(=O)Nc2cccc(Nc3cc(-c4cccc5c4oc4ccccc45)ncn3)c2)cc1` [Compound 25, tert-Butyl {4-[3-(6-dibenzofuran-4-yl-pyrimidin-4-ylamino)-phenylcarbamoyl]-benzyl}-carbamate] gave a melting point of 233 to 236 °C.

`CC(C)(C)OC(=O)Nc1ccc(C(=O)Nc2cccc(Nc3cc(-c4cccc5c4oc4ccccc45)ncn3)c2)cc1` [Compound 30, tert-Butyl N-{4-[3-(6-Dibenzofuran-4-yl-pyrimidin-4-ylamino)-phenylcarbamoyl]-phenyl}-carbamate] showed a melting point of 214 °C.
